Target: T1, FucOB (Amuc_1120), α-1,2-L-Fucosidase O to Bombay (Akkermansia muciniphila, UniProt B2UR61)
T1 construct: signal peptide (residues 1-23) removed, additional N-terminal 17-residue peptide with His tag; pET29a, E. coli BL21(DE3); monomer in crystal
Assay: released fucose by L-fucose dehydrogenase/NADPH assay
Format: biochemical
Conditions: 20 mM Tris-HCl pH 6.8, 37 °C, 30 min; enzyme:substrate 1:100,000

T1 sequence (B2UR61 entry or part of it): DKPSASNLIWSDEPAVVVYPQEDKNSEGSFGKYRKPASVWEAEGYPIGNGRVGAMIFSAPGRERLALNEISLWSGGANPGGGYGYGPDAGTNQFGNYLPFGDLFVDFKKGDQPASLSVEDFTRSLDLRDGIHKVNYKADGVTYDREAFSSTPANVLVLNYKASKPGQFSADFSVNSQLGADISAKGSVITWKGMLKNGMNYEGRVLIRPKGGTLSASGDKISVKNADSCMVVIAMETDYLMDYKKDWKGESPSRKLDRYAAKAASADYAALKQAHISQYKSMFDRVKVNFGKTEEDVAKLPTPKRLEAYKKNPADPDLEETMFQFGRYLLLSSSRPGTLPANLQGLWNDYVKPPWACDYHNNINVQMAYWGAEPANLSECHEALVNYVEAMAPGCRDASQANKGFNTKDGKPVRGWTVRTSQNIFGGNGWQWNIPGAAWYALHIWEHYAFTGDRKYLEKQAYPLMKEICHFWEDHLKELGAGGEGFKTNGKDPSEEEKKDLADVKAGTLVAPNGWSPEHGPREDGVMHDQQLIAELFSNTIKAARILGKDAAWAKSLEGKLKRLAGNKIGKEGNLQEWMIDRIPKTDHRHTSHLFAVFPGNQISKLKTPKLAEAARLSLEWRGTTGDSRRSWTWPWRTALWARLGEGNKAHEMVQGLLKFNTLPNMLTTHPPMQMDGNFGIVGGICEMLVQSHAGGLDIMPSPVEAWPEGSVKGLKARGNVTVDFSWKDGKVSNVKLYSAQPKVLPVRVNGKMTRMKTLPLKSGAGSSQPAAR

Row | Compound | released fucose by L-fucose dehydrogenase/NADPH assay
1 | C[C@@H]1O[C@@H](O[C@H]2[C@H](O[C@H]3[C@H](O)[C@@H](O)C(O)O[C@@H]3CO)O[C@H](CO)[C@H](O)[C@@H]2O)[C@@H](O)[C@H](O)[C@@H]1O (some centres unmarked) [2’-fucosyllactose] | FucOB hydrolyzes all three types of H antigen structures to obtain the afucosylated Bombay phenotype
2 | CC(=O)N[C@H]1C(O)O[C@H](CO)[C@@H](O[C@@H]2O[C@H](CO)[C@H](O)[C@H](O)[C@H]2O[C@@H]2O[C@@H](C)[C@@H](O)[C@@H](O)[C@@H]2O)[C@@H]1O (some centres unmarked) [blood group H antigen triaose type II] | FucOB hydrolyzes all three types of H antigen structures to obtain the afucosylated Bombay phenotype
